Reference: patent EP2801573A1, “Hydantoine derivatives as CD38 inhibitors” (SANOFI, priority 2013, dated 2014)

Columns and labels:
[1] = biological target: T1, natural cell surface human CD38 enzyme (Homo sapiens, UniProt P28907); assay: Cell surface enzyme assay on A549 cells; type: cell-based; conditions: A549 human lung epithelial cells, pre-incubated 15 min, ε-NAD 100 µM, 60 min, pH=7.4
T1 construct: The A549 cells express active CD38 enzyme on the cell surface; endogenous in cells; host or cells: A549 human lung epithelial cells (ATCC CCL 185)
T1 sequence (P28907 1-300): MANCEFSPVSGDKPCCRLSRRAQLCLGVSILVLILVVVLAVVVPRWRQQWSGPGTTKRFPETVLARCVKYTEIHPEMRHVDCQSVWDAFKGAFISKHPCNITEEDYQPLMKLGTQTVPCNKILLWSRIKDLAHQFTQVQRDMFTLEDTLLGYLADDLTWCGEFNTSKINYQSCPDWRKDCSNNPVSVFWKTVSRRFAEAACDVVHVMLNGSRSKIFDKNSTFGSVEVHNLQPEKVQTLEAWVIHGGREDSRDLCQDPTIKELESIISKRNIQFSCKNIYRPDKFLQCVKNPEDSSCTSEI
Procedure: A549 human lung epithelial cells were used as enzyme source. The A549 cells express active CD38 enzyme on the cell surface.
(§1) N6-etheno-NAD (ε-NAD), a NAD analogue previously shown to be a convenient substrate of CD38 enzyme activity (Graeff et al. J. Biol. Chem. 269, pp 30260-30367, […]) was used to measure the activity of human recombinant CD38 and cell surface enzyme activity.
Type II-like human lung epithelial cells A 549 (ATCC CCL 185) were grown in RPMI 1640 medium supplemented with 10% fetal calf serum, 2mM 1-glutamine and penicillin/streptomycin 1% in a humidified incubator with an atmosphere of 95% air and 5% CO2 at 37 °C. At about 70-80% confluence, cells were detached with trypsin/EDTA solution to form a cell suspension and counted. Cell viability was higher as 95% using trypan blue dye. Cells were plated at a density of 500.000 cells/well (24 well plate), before 24 hours of starting the enzyme assay. The medium was removed and replaced by assay buffer (20 mM HEPES, pH=7.4 containing 140 mM NaCl, 5 mM KCl, 1 mM MgSO4 1 mM CaCl2, 1mM Na2HPO4, 5.5 mM glucose).
A549 cells (800.000/well, 500 µl) were pre-incubated in the presence and absence of inhibitors for 15 min before the addition of ε-NAD, final substrate concentration was 100 µM. After 60 min, the plate was centrifuged and 100 µl of supernatant was removed and measured fluorimetrically in BMG Polarstar spectrofluorimeter at an emission wavelength of 410 nm and an excitation of 300 nm. The mean difference in the fluorescence between reaction stopped at 0 and 60 min was used an arbitrary unit of NADase activity. The NADase activity in the absence and presence of inhibitors were compared and IC50 values were calculated.

[2] = biological target: T2, human recombinant CD38 enzyme (Homo sapiens, UniProt P28907); assay: Human recombinant enzyme assay (fluorimetric CD38 enzyme assay, ε-NAD substrate); type: biochemical; conditions: recombinant CD38 100 ng/ml, ε-NAD 100 µM, pH = 6.0, 37°C, reaction time 30 min; read-out: IC50 (nM) ENAD
T2 construct: purchased R&D Systems H7006
T2 sequence (P28907 1-300): T1 sequence (P28907 1-300)
Procedure: Enzyme assay on human recombinant CD38 enzyme were performed in order to determine the in vitro potency of the newly synthesized compounds. IC50 values were determined for the test compounds and used to explore the structure-activity relationships (SAR).
as §1
A fluorimetric CD38 enzyme assay was performed as described by Graeff et al. The reaction was started with 10 µl of N6-etheno-NAD (ε-NAD) substrate, final concentration 100 µM, in a final volume of 0.1 ml buffered with 50 mM HEPES, 0.05% BRIJ, pH = 6.0 containing 100 ng/ml recombinant CD38 (R&D Systems, H7006). Cleavage of ε-NAD, which causes a 10-fold fluorescence enhancement, was continuously followed at 37°C in a BMG Polarstar spectrofluorometer at an emission wavelength of 410 nm and an excitation of 300 nm, reaction time was 30 min. NADase activity was expressed as Δ relative fluorescence/min. The rate of enzyme reactions were compared in the presence and absence of inhibitor molecule, the IC50 values were calculated with Biostat Speed program.

Structure (SMILES)	IC50 [1] [nM]	IC50 [2] [nM]
CCCCc1ccc(N2C(=O)N/C(=C\c3ccncc3)C2=O)cc1 [Compound 24, 3-(4-Butyl-phenyl)-5-[1-pyridin-4-yl-meth-(Z)-ylidene]-imidazolidine-2,4-dione]	297	80
O=C(c1cccc(N2C(=O)N/C(=C\c3ccncc3)C2=O)c1)N1CCOCC1 [Compound 28, 3-[3-(Morpholine-4-carbonyl)-phenyl]-5-[1-pyridin-4-yl-meth-(Z)-ylidene]-imidazolidine-2,4-dione]	359	50
O=C1N/C(=C\c2ccncc2)C(=O)N1c1ccc(I)cc1 [Compound 33, 3-(4-Iodo-phenyl)-5-[1-pyridin-4-yl-meth-(Z)-ylidene]-imidazolidine-2,4-dione]	272	38
O=C1N/C(=C\c2ccncc2)C(=O)N1C1CC(F)(F)C1 [Compound 53, 3-(3,3-Difluoro-cyclobutyl)-5-[1-pyridin-4-yl-meth-(Z)-ylidene]-imidazolidine-2,4-dione]	249	50
O=C1N/C(=C\c2ccncc2)C(=O)N1CC1(O)CCCC1 [Compound 58, 3-(1-Hydroxy-cyclopentylmethyl)-5-[1-pyridin-4-yl-meth-(Z)-ylidene]-imidazolidine-2,4-dione]	246	30
CC(C)(O)CN1C(=O)N/C(=C\c2ccncc2)C1=O [Compound 61, 3-(2-Hydroxy-2-methyl-propyl)-5-[1-pyridin-4-yl-meth-(Z)-ylidene]-imidazolidine-2,4-dione]	288	25
O=C1N/C(=C\c2ccncc2)C(=O)N1CC(F)(F)F [Compound 62, 5-[1-Pyridin-4-yl-meth-(Z)-ylidene]-3-(2,2,2-trifluoro-ethyl)-imidazolidine-2,4-dione]	604	57

Results, then the compound that gave them:

IC50 [1] [nM]	IC50 [2] [nM]	Structure (SMILES)
181	30	O=C1N/C(=C\c2ccncc2)C(=O)N1c1ccc(Cl)cc1 [Compound 2, 3-(4-Chloro-phenyl)-5-[1-pyridin-4-yl-meth-(Z)-ylidene]-imidazolidine-2,4-dione]
242	55	O=C1N/C(=C\c2ccncc2)C(=O)N1CC1(O)CCCCC1 [Compound 55, 3-(1-Hydroxy-cyclohexylmethyl)-5-[1-pyridin-4-yl-meth-(Z)-ylidene]-imidazotidine-2,4-dione]
137	20	O=C1N/C(=C\c2ccncc2)C(=O)N1CC1CCOCC1 [Compound 56, 5-[1-Pyridin-4-yl-meth-(Z)-ylidene]-3-(tetrahydro-pyran-4-ylmethyl)-imidazolidine-2,4-dione]
98.5	35	O=C1N/C(=C\c2ccncc2)C(=O)N1CC1(O)CCC1 [Compound 59, 3-(1-Hydroxy-cyclobutylmethyl)-5-[1-pyridin-4-yl-meth-(Z)-ylidene]-imidazolidine-2,4-dione]
81.8	22	O=C1N/C(=C\c2ccncc2)C(=O)N1CC1CCCO1 (stereo not drawn) [Compound 60, 5-[1-Pyridin-4-yl-meth-(Z)-ylidene]-3-(tetrahydro-furan-2-ylmethyl)-imidazolidine-2,4-dione]
